Legend:
Format in all cases: physicochemical
[1] = Solubility tests for trimellitic anhydride in 2-ethyl hexanol
Protocol: Tri octyl trimellitate (TOTM) is one of the most commonly used non-phthalate based plasticizers. Tri octyl trimellitate is produced via esterification reaction between trimellitic anhydride (TMA) and 2-ethyl hexanol (2-EH). According to embodiments of the invention, trimellitic anhydride may be dissolved in 2-ethyl hexanol before it is transferred to an esterification reactor. Thus, the solubility of trimellitic anhydride in 2-ethyl hexanol was tested under various molar ratios of trimellitic anhydride to 2-ethyl hexanol. In this experiment, a hundred grams of trimellitic anhydride was initially added to 2-ethyl hexanol at a molar ratio of 1:1 to form a mixture. The temperature of the mixture was controlled in a range of 110° C. to 150 ° C. Additional 2-ethyl hexanol was gradually added to the mixture to change the molar ratio of trimellitic anhydride to 2-ethyl hexanol until complete dissolution of trimellitic anhydride in 2-ethyl hexanol was observed. The amount of added 2-ethyl hexanol was recorded to obtain a molar ratio needed for the complete dissolution of trimellitic anhydride.

[2] = Repeated solubility test for trimellitic anhydride in 2-ethyl hexanol
Protocol: The temperature range for complete dissolution of trimellitic anhydride was further repeated by varying the temperature in a range of 110° C. to 149° C. when the molar ratio of trimellitic anhydride to 2-ethyl hexanol was kept at 1:3.25. About 100 g of trimellitic anhydride was used. When a complete dissolution of trimellitic anhydride was observed, the amount of water formed during the dissolution and total time consumed for dissolution are recorded.

[3] = Solubility tests for trimellitic anhydride in 2-ethyl hexanol; remark: listed apart in the source

In the case of `O=C(O)c1ccc2c(c1)C(=O)OC2=O` [trimellitic anhydride], the Dissolution ([1]; TMA:2-EH molar ratio 1:1, 110-150 °C) is reported as “No”, the Dissolution ([1]; TMA:2-EH molar ratio 1:2, 110-150 °C) is reported as “No” and the Dissolution ([1]; TMA:2-EH molar ratio 1:2.5, 110-150 °C) is reported as “No”. For the same molecule, the Dissolution ([1]; TMA:2-EH molar ratio 1:3, 110-150 °C) was “No”, the Dissolution ([1]; TMA:2-EH molar ratio 1:3.25, 110-150 °C) was “Yes” and the “Time for complete dissolution” value ([2]; about 149 °C, molar ratio about 1:3.25) was 20 to 30 min. The Dissolution ([2]; in 2-ethyl hexanol, TMA:2-EH molar ratio 1:3.25, 110-149 °C) was “Yes”, the “Temperature at which the mixture becomes milky” value ([2]; on cooling, molar ratio 1:3.25) was 60 °C and the “Temperature at which turbidity starts forming in the solution” value ([2]; on cooling, molar ratio 1:3.25) was 65 °C. For the same molecule, the “Temperature at which water formation starts” value ([3]; TMA:2-EH molar ratio 1:1, no catalyst) was “at 135 °C”, the “Temperature at which water formation starts” value ([3]; TMA:2-EH molar ratio 1:2, no catalyst) was “at 135 °C” and the “Temperature at which water formation starts” value ([3]; TMA:2-EH molar ratio 1:2.5, no catalyst) was “at 135 °C”. For the same molecule, the “Temperature at which water formation starts” value ([3]; TMA:2-EH molar ratio 1:3, no catalyst) was “at 135 °C” and the “Temperature at which water formation started” value ([3]; at each molar ratio, without catalysts) was 135 °C.
